# Experimental data as given in patent US7115633B2, “Benzosuberonylpiperdine compounds as analgesics” (GlaxoSmithKline S.p.A., priority 2000, dated 2006).
row,Structure (SMILES),melting point [°C]
1,Cc1cccc(C2CCN(C[C@H]3CCc4c(Br)cccc4[C@H](O)C3)CC2)c1.Cl (racemic),> 250
2,Cl.O[C@@H]1C[C@H](CN2CCC(c3ccccc3Cl)CC2)CCc2c(F)cccc21 (racemic),245 to 247
3,Cc1ccccc1C1CCN(CC2CCc3c(F)cccc3C(O)C2)CC1.Cl (racemic),231 to 233
4,Cc1cccc(C2CCN(C[C@@H]3CCc4c(C)cccc4[C@H](O)C3)CC2)c1.Cl (racemic),> 250
5,Cc1cccc2c1CC[C@@H](CN1CCC(c3ccccc3Cl)CC1)C[C@H]2O.Cl (racemic),> 250
